Results as given in article PMC7228129, “Evaluation of Developmental Toxicity, Developmental Neurotoxicity, and Tissue Dose in Zebrafish Exposed to GenX and Other PFAS” (Environmental Health Perspectives, 2020).
“And” between values parts separate entries of the source, which are not always exact repeats. Identical values can stand only once. “Also recorded” adds a separate entry of the source. Like-named read-outs stand apart in the source and are kept apart here.

Test: Tissue analysis (internal tissue dose of parent PFAS, bioconcentration factor)
Format: in vivo, Danio rerio
Settings: for Parent compound in fish tissue at 6 dpf: Study 1, daily exposure 0–5 dpf; for Bioaccumulation ranking: among chemicals assessed, from BCF values; for BCFdry: 6-d zebrafish assay; for concentration at 6 dpf: zebrafish (Danio rerio), whole larvae (pools of 10, homogenised), other: waterborne exposure in the well medium, 6 dpf larvae, dry weight 44 μg per larva, read-out: Measured tissue dose; for Dil Corrected Reported Conc. (fMole/larvae), measured tissue concentration: zebrafish larvae, replicate samples per experiment/plate
Procedure: Zebrafish were exposed to 25.1, 44.8, or 80.0μM ADONA, PFOA, PFESA1, or PFHxA, 14.0, 25.1, or 44.8μM PFHxS, or 1.0, 1.8, or 3.1μM PFOS, or 0.4% DMSO. The highest concentration evaluated was the no observed effect concentration (NOEC) determined in Study 1. In Study 2, zebrafish were exposed to 25.1, 44.8, or 80.0μM GenX Free Acid or 0.4% DMSO. According to the previously described microtiter plate inclusion criterion, 15/15 plates were included in the study. Larvae were anesthetized by rapid cooling in chilled 10% HBSS. Groups of 10 anesthetized larvae were pooled to comprise one biological replicate ( n=4 ) in 500μL of 10% HBSS, flash frozen in liquid nitrogen, and stored at −80°C . In the case of ADONA, n=5 .
Tissue samples were prepared by protein precipitation. Flash frozen samples, consisting of pools of ten 6-dpf zebrafish larvae, were homogenized using ∼100mg of 1.0-mm diameter zirconia/silica beads and a Fast-Prep-24™ homogenizer (MP Biomedicals) in 100μL 0.1M formic acid fortified with the surrogate (i.e., PFNA). Protein was precipitated from the homogenate with 400μL of acetonitrile containing internal standards and separated by centrifugation at 14,000 rpm for 15 min at 4°C. Fifty microliters of the extract was diluted with 200μL aqueous 0.4 mM ammonium formate in the LC vial for analysis. Standards and samples were analyzed with Vanquish UPLC and Orbitrap Fusion mass spectrometer (Thermo Electron) operated in negative ESI mode. ESI source conditions were optimized for the [M-H]^− ion of PFAS as follows: spray voltage −3.5 kV , sheath gas 25 au (arbitrary units), aux gas 6 au, sweep gas 0 au, ion transfer tube temperature 300°C, and vaporizer temperature […]. High-resolution accurate mass (HRAM) MS1 scans were collected with the following parameters: detector type orbitrap, orbitrap resolution 30,000 full width at half maximum (FWHM), normal mass range, Use quadrapole isolation=true , scan range 70–700m/z , radio frequency (RF) lens 60%, automatic gain control (AGC) target 4.00×10^5 , max injection time of 50 ms , 1 microscan, data type set to profile, negative polarity, and source fragmentation disabled. Data-dependent orbitrap MSMS (ddMS2-OT) scans were collected for the [M-H]^− ion [ M-H-CO2 for GenX]^– using a target mass list for the eight PFAS and PFNA surrogate for identity confirmation. The apex detection was set to an expected peak width of 2 s at FWHM and desired apex peak window of 30%. The dynamic exclusion parameters were set to exclude after a one-time, 60-s exclusion duration, low and high mass tolerances of 10 ppm , and exclude isotope was set to true. The intensity threshold for collecting an MSMS scan was set to 2.5E+04 . Fragmentation was done by high-energy collisional dissociation (HCD). The ddMS2-OT scans were collected with the following parameters: orbitrap isolation mode, isolation window of 1.6m/z , isolation offset off, stepped HCD collision energy of 30%±10% , scan range of auto mass-to-charge ratio normal, orbitrap resolution of 30,000 FWHM, first mass 75m/z , max injection time of […], AGC target 5.00×10^4 , inject ions from available parallelizable time set to true, max injection time of 54 ms, 1 microscan, and data type set to centroid. UPLC separation was achieved using ACQUITY UPLC BEH C18 Column, 130Å , 1.7μM , 2.1mm×50mm (Waters Corp P/N 186,002,350) at 50°C with gradient elution at a flow rate of 300μL/min using 0.4 mM ammonium formate in acetonitrile and water with a 10-μL injection. Data collection, integration, calibration, and quantitation were performed using Xcalibur software (version 4.1; Thermo Electron). Concentration for each PFAS analyte was determined by internal standard technique using isotopically labeled internal standards and matrix-matched calibration standards. Quantitative analysis was performed using high-resolution MS1-extracted ion chromatograms. […]

[1] = nominal 25.1 μM daily 0–5 dpf, 0.4% DMSO
[2] = nominal 44.8 μM daily 0–5 dpf, 0.4% DMSO
[3] = nominal 80.0 μM daily 0–5 dpf, 0.4% DMSO

In the case of `O=C(O)C(F)(F)C(F)OC(F)(F)C(F)(F)C(F)(F)OC(F)(F)F` (stereo not drawn) [ADONA, 4,8-Dioxa-3H-perfluorononanoate], the “Parent compound in fish tissue at 6 dpf” value (0.4% DMSO) is reported as “detectable levels”, the “Bioaccumulation ranking” value is reported as “least bioaccumulative” and the BCFdry (nominal 25.1 μM, 0.4% DMSO) is reported as 0.95 L/kg. It also gave a BCFdry (nominal 44.8 μM, 0.4% DMSO) of 0.94 L/kg, a BCFdry (nominal 80.0 μM, 0.4% DMSO) of 0.56 L/kg and a concentration at 6 dpf [1] of 9490 ± 3100 ng/g. The concentration at 6 dpf [2] was 16000 ± 6290 ng/g, the concentration at 6 dpf [3] was 14900 ± 3110 ng/g and the “Dil Corrected Reported Conc. (fMole/larvae), measured tissue concentration” value (exposure Concentration 25.1 µM) was 687.994 fMole/larvae and 814.543 fMole/larvae and 1674.31 fMole/larvae and 986.423 fMole/larvae and 1056.18 fMole/larvae. For the same molecule, the “Dil Corrected Reported Conc. (fMole/larvae), measured tissue concentration” value (exposure Concentration 44.8 µM) was 1721.39 fMole/larvae and 1579.99 fMole/larvae and 1307.54 fMole/larvae and 1119.74 fMole/larvae and 3082.15 fMole/larvae and the “Dil Corrected Reported Conc. (fMole/larvae), measured tissue concentration” value (exposure Concentration 80 µM) was 1324.81 fMole/larvae and 2040.26 fMole/larvae and 1665.47 fMole/larvae and 1967.75 fMole/larvae and 1175.25 fMole/larvae.

With `O=C(O)C(F)(OC(F)(F)C(F)(F)C(F)(F)F)C(F)(F)F` (stereo not drawn) [GenX Free Acid, Perfluoro-2-propoxypropanoic acid] the “Parent compound in larval zebrafish tissue” value (GenX Free Acid diluted in DI water (Study 2)) was “detectable levels; also recorded: detectable in zebrafish tissue”, the “Parent compound in zebrafish tissue at 6 dpf” value (GenX Free Acid diluted in DMSO (Study 1)) was “undetectable” and the BCFdry (nominal 25.1 μM in DI water (Study 2)) was 0.45 L/kg. It also gave a BCFdry (nominal 44.8 μM in DI water (Study 2)) of 0.29 L/kg, a BCFdry (nominal 80.0 μM in DI water (Study 2)) of 0.49 L/kg and a concentration at 6 dpf (nominal 25.1 μM in DI water (Study 2) daily 0–5 dpf) of 2480 ± 660 ng/g. For the same molecule, the concentration at 6 dpf (nominal 44.8 μM in DI water (Study 2) daily 0–5 dpf) was 2020 ± 270 ng/g and the concentration at 6 dpf (nominal 80.0 μM in DI water (Study 2) daily 0–5 dpf) was 5110 ± 1490 ng/g.

With `O=S(=O)(O)C(F)(F)C(F)(F)OC(F)(C(F)(F)F)C(F)(F)OC(F)=C(F)F` (stereo not drawn) [PFESA1, Perfluoro-3,6-dioxa-4-methyl-7-octene-1-sulfonic acid] the “Parent compound in fish tissue at 6 dpf” value (0.4% DMSO) was “detectable levels”, the “Bioaccumulation ranking” value was “least bioaccumulative” and the BCFdry (nominal 25.1 μM, 0.4% DMSO) was 3.09 L/kg. It also gave a BCFdry (nominal 44.8 μM, 0.4% DMSO) of 2.62 L/kg, a BCFdry (nominal 80.0 μM, 0.4% DMSO) of 1.44 L/kg and a concentration at 6 dpf [1] of 23700 ± 17500 ng/g. For the same molecule, the concentration at 6 dpf [2] was 37000 ± 17400 ng/g, the concentration at 6 dpf [3] was 43200 ± 4840 ng/g and the “Dil Corrected Reported Conc. (fMole/larvae), measured tissue concentration” value (exposure Concentration 25.1 µM) was 4.79E+03 fMole/larvae and 1603 fMole/larvae and 2911 fMole/larvae and 78 fMole/larvae. For the same molecule, the “Dil Corrected Reported Conc. (fMole/larvae), measured tissue concentration” value (exposure Concentration 44.8 µM) was 2778 fMole/larvae and 2495 fMole/larvae and the “Dil Corrected Reported Conc. (fMole/larvae), measured tissue concentration” value (exposure Concentration 80 µM) was 3514 fMole/larvae and 4409 fMole/larvae.

For `O=C(O)C(F)(F)C(F)(F)C(F)(F)C(F)(F)C(F)(F)F` [PFHxA, Perfluorohexanoic acid], the “Bioaccumulation ranking” value was “least bioaccumulative”, the BCFdry (nominal 25.1 μM, 0.4% DMSO) was 0.46 L/kg and the BCFdry (nominal 44.8 μM, 0.4% DMSO) was 0.18 L/kg. The BCFdry (nominal 80.0 μM, 0.4% DMSO) was 0.24 L/kg, the concentration at 6 dpf [1] was 4970 ± 4400 ng/g and the concentration at 6 dpf [2] was 3280 ± 560 ng/g. The concentration at 6 dpf [3] was 8770 ± 4310 ng/g, the “Dil Corrected Reported Conc. (fMole/larvae), measured tissue concentration” value (exposure Concentration 25.1 µM) was 643.192 fMole/larvae and 1721.28 fMole/larvae and 198.739 fMole/larvae and 224.57 fMole/larvae and the “Dil Corrected Reported Conc. (fMole/larvae), measured tissue concentration” value (exposure Concentration 44.8 µM) was 344.178 fMole/larvae and 504.145 fMole/larvae and 437.515 fMole/larvae and 553.638 fMole/larvae. For the same molecule, the “Dil Corrected Reported Conc. (fMole/larvae), measured tissue concentration” value (exposure Concentration 80 µM) was 1323.26 fMole/larvae and 776.14 fMole/larvae and 638.759 fMole/larvae and 2174.95 fMole/larvae.

`O=S(=O)(O)C(F)(F)C(F)(F)C(F)(F)C(F)(F)C(F)(F)C(F)(F)F` [PFHxS, Perfluorohexanesulfonic acid] showed a BCFdry (nominal 14.0 μM, 0.4% DMSO) of 11.82 L/kg, a BCFdry (nominal 25.1 μM, 0.4% DMSO) of 8.01 L/kg and a BCFdry (nominal 44.8 μM, 0.4% DMSO) of 9.30 L/kg. For the same molecule, the concentration at 6 dpf (nominal 14.0 μM daily 0–5 dpf, 0.4% DMSO) was 107000 ± 50100 ng/g, the concentration at 6 dpf [1] was 129000 ± 31500 ng/g and the concentration at 6 dpf [2] was 261000 ± 57200 ng/g. For the same molecule, the “Dil Corrected Reported Conc. (fMole/larvae), measured tissue concentration” value (exposure Concentration 14 µM) was 8.83E+03 fMole/larvae and 1.94E+04 fMole/larvae and 6.95E+03 fMole/larvae and 7.88E+03 fMole/larvae, the “Dil Corrected Reported Conc. (fMole/larvae), measured tissue concentration” value (exposure Concentration 25.1 µM) was 1.35E+04 fMole/larvae and 1.76E+04 fMole/larvae and 8.93E+03 fMole/larvae and 1.16E+04 fMole/larvae and the “Dil Corrected Reported Conc. (fMole/larvae), measured tissue concentration” value (exposure Concentration 44.8 µM) was 2.76E+04 fMole/larvae and 3.50E+04 fMole/larvae and 2.15E+04 fMole/larvae and 2.07E+04 fMole/larvae.

With `O=C(O)C(F)(F)C(F)(F)C(F)(F)C(F)(F)C(F)(F)C(F)(F)C(F)(F)F` [PFOA, Perfluoro-n-octanoic acid] the “Parent compound in fish tissue at 6 dpf” value (0.4% DMSO) was “detectable levels”, the BCFdry (nominal 25.1 μM, 0.4% DMSO) was 11.68 L/kg and the BCFdry (nominal 44.8 μM, 0.4% DMSO) was 6.52 L/kg. The BCFdry (nominal 80.0 μM, 0.4% DMSO) was 5.17 L/kg, the concentration at 6 dpf [1] was 116000 ± 25200 ng/g and the concentration at 6 dpf [2] was 124000 ± 29900 ng/g. The concentration at 6 dpf [3] was 171000 ± 41100 ng/g, the “Dil Corrected Reported Conc. (fMole/larvae), measured tissue concentration” value (exposure Concentration 25.1 µM) was 16735.5 fMole/larvae and 10378.2 fMole/larvae and 12074.8 fMole/larvae and 10012 fMole/larvae and the “Dil Corrected Reported Conc. (fMole/larvae), measured tissue concentration” value (exposure Concentration 44.8 µM) was 10919.7 fMole/larvae and 9223.5 fMole/larvae and 16062.6 fMole/larvae and 16554.8 fMole/larvae. The “Dil Corrected Reported Conc. (fMole/larvae), measured tissue concentration” value (exposure Concentration 80 µM) was 21852.9 fMole/larvae and 22967.7 fMole/larvae and 14850.1 fMole/larvae and 12804.3 fMole/larvae.

With `O=S(=O)(O)C(F)(F)C(F)(F)C(F)(F)C(F)(F)C(F)(F)C(F)(F)C(F)(F)C(F)(F)F` [PFOS, Perfluorooctanesulfonic acid] the “Bioaccumulation ranking” value was “most bioaccumulative”, the BCFdry (nominal 1.0 μM, 0.4% DMSO) was 1,374.89 L/kg and the BCFdry (nominal 1.8 μM, 0.4% DMSO) was 1,348.46 L/kg. It also gave a BCFdry (nominal 3.1 μM, 0.4% DMSO) of 684.03 L/kg, a concentration at 6 dpf (nominal 1.0 μM daily 0–5 dpf, 0.4% DMSO) of 220000 ± 109000 ng/g and a concentration at 6 dpf (nominal 1.8 μM daily 0–5 dpf, 0.4% DMSO) of 422000 ± 183000 ng/g. The concentration at 6 dpf (nominal 3.1 μM daily 0–5 dpf, 0.4% DMSO) was 678000 ± 53500 ng/g, the “Dil Corrected Reported Conc. (fMole/larvae), measured tissue concentration” value (exposure Concentration 0.986 µM) was 29113.1 fMole/larvae and 7862.61 fMole/larvae and 11812.2 fMole/larvae and 28665.6 fMole/larvae and the “Dil Corrected Reported Conc. (fMole/larvae), measured tissue concentration” value (exposure Concentration 1.76 µM) was 24142 fMole/larvae and 18963.9 fMole/larvae and 47666.3 fMole/larvae and 57759 fMole/larvae. The “Dil Corrected Reported Conc. (fMole/larvae), measured tissue concentration” value (exposure Concentration 3.144 µM) was 57262.1 fMole/larvae and 67321.8 fMole/larvae and 54771.6 fMole/larvae and 59188.7 fMole/larvae.
